Results reported in patent US20120122956A1, “METHODS FOR INHIBITING AN[…] MULTI-ARM POLYMERIC CONJUGATES OF 7-ETHYL-10-HYDROXYCAMPTOTHECIN” (ENZON PHARMACEUTICALS, INC., priority 2009, published 2012).

Assays:
[1] = Solubility in aqueous saline solution; assay type: physicochemical
Pharmacokinetics in rats = assay type: in vivo
Procedure: Additionally, pharmacokinetic profiles of 4arm PEG-Gly-(7-ethyl-10-hydroxycamptothecin) were investigated in rats. In rats, dose levels of 3, 10 and 30 mg/kg (7-ethyl-10-hydroxycamptothecin equivalent) were used. The pharmacokinetic profiles in rats were consistent with those of mice.

[2] = Pharmacokinetics in tumor free Balb/C mice; assay type: in vivo
Procedure: Tumor free Balb/C mice were injected with a single injection of 20 mg/kg 4armPEG-Gly-(7-ethyl-10-hydroxycamptothecin) conjugates. At various time points mice were sacrificed and plasma was analyzed for intact conjugates and released 7-ethyl-10-hydroxycamptothecin by HPLC. Pharmacokinetic analysis was done using non-compartmental analysis (WinNonlin).

U251-HRE xenografts = details: zero to 125 hours of treatment (FIG. 13)
Source text: (§1) The human glioma cell line, U251-HRE was kindly provided by Dr. Giovanni Melillo at National Cancer Institute (Frederick, Md., United States). The cells were transfected with luciferase reporter plasmids containing three copies of a canonical hypoxia response element (HRE) from the inducible nitric oxide synthase gene (Rapsirada, et al. 2000). U251-HRE tumors were established in the right axillary flank of female Harlan Sprague-Dawley nude mice (Harlan World, Indianapolis, Ind.) by subcutaneous injection of 1×10^7 U251-HRE cells/mouse. […] At each treatment time point, the tumor volume measurements were recorded and the tumor weights (mg) calculated using mg=[tumor length×(tumor width)]/2. […] To do so, the mice were injected intraperineally with 150 mg/kg of D-luciferin Firefly, potassium salt (Biosynth International, Inc., Itasca, Ill.). After 10 minutes, the mice were anesthetized via isofluorane gas and imaged using the Xenogen IVIS 100 Imaging Station (Xenogen Corp., Alameda, Calif.).

[3] = system: CAMs grafted with tumor biopsy specimens of HTLA-230 or GI-LI-N xenografts; details: for number of allantoic vessels radiating towards the tumor specimen: compared to control CAMs, CPT-11 10 or 40 mg/kg, compound 9 10 mg/kg (SN38 based)
Procedure: Protoc. 2006, 1:85-91. Mice were injected with the human NB cell line, HTLA-230 or GI-LI-N. Tumor biopsy specimens in size of 1-2 mm^3 were obtained from the xenografted mice and then grafted onto the CAMs. […] In the control group, the CAMs were incubated with PBS buffer. […] The CAMs were examined daily for 12 days and photographed in ovo with a stereomicroscope equipped with a camera and image analyzer system (Olympus Italia, Italy). CD31-positive microvessels were measured and normalized with that of the control group. Less CD31-positive microvessels mean greater antiangiogenic effects. Microvessel density was represented by the percentage of the total number of intersection points occupied by CD31-positive vessels cut transversely (diameter of 3-10 μm). Mean values±SD were determined for each analysis.

HIF-1α [4] = experiment: HIF-1-dependent luciferase expression in U251-HRE human glioma xenografts; assay type: in vivo, mice; details: for luminescence (HIF-1-dependent luciferase): single dose or multiple doses, 48 hour and 120 hour time points, not normalized
Procedure: The effect was measured by HIF-1-dependent luciferase expression in the U251-HRE xenografts.
as §1

[5] = 7-ethyl-10-hydroxycamptothecin formation from conjugates in mouse plasma; assay type: in vitro ADME
[6] = 7-ethyl-10-hydroxycamptothecin formation from conjugates in rat plasma; assay type: in vitro ADME
[7] = Hydrolysis in human plasma (conjugate half life, 7-ethyl-10-hydroxycamptothecin formation); assay type: in vitro ADME
Procedure: In human plasma, 7-ethyl-10-hydroxycamptothecin was steadily released from the PEG conjugates with a doubling time of 22 to 52 minutes and the release appeared to be pH and concentration dependent as described in the following EXAMPLE 24.

[8] = system: human neuroblastoma cells (GI-LI-N) xenograft tumors; details: compared to mice treated with CAMPTOSAR; 10 mg/kg i.v. q2d×5
Procedure: (§2) Xenograft tumors were established in mice by injecting human neuroblastoma cells (GI-LI-N) in the adrenal gland at day 0 (T0). […] The control group mice received HEPES-buffered saline solution. Histological examination was performed on the tumors removed from the mice at day 44 (T44).
The tissue sections removed from the treated mice in Example 27 were immunostained with TUNEL to evaluate apoptosis, and with primary antibody against histone H2ax (H2AFX) to evaluate DNA-damage dependent histone phosphorylation.

[9] = system: human neuroblastoma cells (GI-LI-N) xenograft tumors; experiment: Tumor angiogenesis and invasion in orthotopic GI-LI-N xenografted mice (VEGF, CD31, MMP-2, MMP-9 staining); assay type: in vivo
Procedure: as §2
The tissue sections were stained with antibodies against VEGF and CD31 to evaluate inhibition of angiogenesis. […] Cell nuclei were stained with DAPI. Morphometric analysis was performed on 9 randomly selected fields every 3 sections, observed at 200× magnification with an Olympus photomicroscope, using Image Analysis software (Olympus Italia). […] The sections were then washed twice in PBS and saturated with 2% BSA in PBS. In the morphometric analysis, the mean value in each image from the section, the final mean value for all the images and the SEM were calculated. The statistical significance of the differences between the mean values of the different experimental conditions was determined by Student's t test (GraphPad software). Findings were considered significant at P values <0.05 for all statistical evaluations.

HIF-1α [10] = system: HIF-1α
Procedure: (§3) The cancer cells were grown in complete DMEM or RPMI-1640 medium, supplemented with 10% heat-inactivated FCS, as described in Pastorino F. et al., Cancer Res. 2006, 66:10073-82, 2006; Pastorino F. et al., Clin. Cancer Res. 2008, 14:7320-9; and Brignole C, et al., J. Nat'l. Cancer Inst. 2006, 98:1142-57). […] In some experiments (FIGS. 14(B) and (C)), the cancer cells were pre-incubated with 0.15 mM of Desferal (DFX or Deferoxamine purchased from Novartis Pharma in Stein, Swizerland) for 6 hours to induce HIF-1α. […] The cells were collected and western blotting analysis was performed using cell lysates as described in Pagnan G. et al., Clin. Cancer Res. 2009, 15:1199-209). Monoclonal anti-p53 (clone PAb 1801) and anti-HIF-1α (clone 54) were purchased from BD Biosciences (Buccinasco, Mich., Italy). Anti-HIF-2α (clone ep190b), and an anti-GAPDH (clone 14c10) antibodies were from Novus Biologicals, Inc (Cambridge, UK) and Cell Signaling Technology (Danvers, Mass., US), respectively.

HIF-2α = details: GI-LI-N, HTLA-230, SH-SY5Y cells, 24 and 48 hours
Procedure: as §3

[11] = released 7-ethyl-10-hydroxycamptothecin
[12] = 7-ethyl-10-hydroxycamptothecin released from Compound 9, single injection 20 mg/kg of conjugate
[13] = multiple doses at MTD (q2d×3, day 0, 2, 4; compound 9 10 mg/kg, CPT-11 40 mg/kg), 120 hours
[14] = 10 mg/kg i.v. q2d×5, tumors removed day 44
[15] = significantly when compared to Camptosar (P<0.05), 10 mg/kg i.v. q2d×5

Question: With CCc1c2c(nc3ccc(O)cc13)-c1cc3c(c(=O)n1C2)COC(=O)[C@]3(O)CC [7-ethyl-10-hydroxycamptothecin] as the molecule, how does the “Solubility in Saline” value [1] read?
Answer: ^a7-ethyl-10-hydroxycamptothecin is not soluble in saline.

Question: What about the “apparent elimination half life” value (Pharmacokinetics in rats; 7-ethyl-10-hydroxycamptothecin released from 4armPEG-Gly conjugate) of the same molecule?
Answer: 21 to 22 h

Question: What about the Enterohepatic circulation (Pharmacokinetics in rats; [11]) of the same molecule?
Answer: observed

Question: What about the clearance (Pharmacokinetics in rats; [11]) of the same molecule?
Answer: 2.18 mL/min/kg

Question: And the “estimated Vss” value (Pharmacokinetics in rats; [11])?
Answer: 2.384 L/kg

Question: What about the AUC [2, 12] of the same molecule?
Answer: 98300 ng·h/mL

Question: What about the CL [2, 12] of the same molecule?
Answer: 3.37 mL/min/kg

Question: What about the Cmax [2, 12] of the same molecule?
Answer: 13200 ng/mL

Question: What about the “Terminal t1/2” value [2, 12] of the same molecule?
Answer: 14.2 h

Question: And the Vss [2, 12]?
Answer: 3.094 L/kg

Question: What about the terminal elimination half-life ([2]; 7-ethyl-10-hydroxycamptothecin released from the conjugate, mice) of the same molecule?
Answer: 18 to 26 h

Question: And the Enterohepatic circulation ([2]; released 7-ethyl-10-hydroxycamptothecin, mice)?
Answer: observed

Question: Which results are given for CCc1c2c(nc3ccc(OC(=O)N4CCC(N5CCCCC5)CC4)cc13)-c1cc3c(c(=O)n1C2)COC(=O)[C@]3(O)CC [CPT-11, reference compound]?
Answer: tumor mass (U251-HRE xenografts): reduced; number of allantoic vessels radiating towards the tumor specimen [3]: decreased; downregulation of HIF-1α (luminescence normalized for tumor mass, change from baseline) (HIF-1α [4]; multiple doses (q2d×3, CPT-11 40 mg/kg), 48 hours): 15%; downregulation of HIF-1α (luminescence normalized for tumor mass, change from baseline) (HIF-1α [4]; [13]): 32%; luminescence (HIF-1-dependent luciferase) (HIF-1α [4]): minimal effect; downregulation of HIF-1α (HIF-1α [4]; single injection (qd×1, CPT-11 80 mg/kg)): no downregulation

Question: Which “Doubling Time in Plasma, Mouse (7-ethyl-10-hydroxycamptothecin formation rate from conjugates)” value (“Doubling Time in Plasma, Mouse” for short) [5] does the source give for “^40K4arm-PEG-Sar-(20)-(7-ethyl-10-hydroxycamptothecin) [Compound 23]” here?
Answer: 43.4 min

Question: And the “Doubling Time in Plasma, Rat (7-ethyl-10-hydroxycamptothecin formation rate from conjugates)” value (shortened to “Doubling Time in Plasma, Rat”) [6]?
Answer: 481 min

Question: What about the “Doubling Time in Plasma, Human (7-ethyl-10-hydroxycamptothecin formation rate from conjugates)” value (from here on “Doubling Time in Plasma, Human”) [7] of the same molecule?
Answer: 28.8 min

Question: What about the “t1/2 in Human Plasma (PEG conjugate half life)” value (shortened to “t1/2 in Human Plasma”) [7] of the same molecule?
Answer: 0.317 h

Question: With “^40k4arm-PEG-Ala-(20)-(7-ethyl-10-hydroxycamptothecin) [Compound 12]” as the molecule, how does the “Doubling Time in Plasma, Mouse” value [5] read?
Answer: 45.8 min

Question: And the “Solubility in Saline” value [1]?
Answer: 121 mg/mL

Question: And the “Doubling Time in Plasma, Rat” value [6]?
Answer: 753 min

Question: What about the “Doubling Time in Plasma, Human” value [7] of the same molecule?
Answer: 51.9 min

Question: What about the “t1/2 in Human Plasma” value [7] of the same molecule?
Answer: 0.208 h

Question: Which tumor mass (U251-HRE xenografts) does the source give for “^40k4arm-PEG-Gly(20)-(7-ethyl-10-hydroxycamptothecin) [Compound 9]” here?
Answer: reduced

Question: What about the “number of allantoic vessels radiating towards the tumor specimen” value [3] of the same molecule?
Answer: decreased

Question: And the “number of radiating vessels which invade the tumor specimen” value ([3]; compound 9 compared to CPT-11, P<0.01)?
Answer: much less

Question: What about the “Histone H2ax staining in tumor tissues” value [8] of the same molecule?
Answer: enhanced

Question: What about the “TUNEL staining in tumor tissues (apoptosis)” value [8] of the same molecule?
Answer: enhanced

Question: And the “CD31 expression in primary NB tumors” value [9, 14]?
Answer: inhibited

Question: And the “VEGF expression in primary NB tumors” value [9, 14]?
Answer: inhibited

Question: What about the “number of CD31-positive endothelial cells” value ([9]; compared to mice treated with CAMPTOSAR, P<0.05, 10 mg/kg i.v. q2d×5) of the same molecule?
Answer: decreased

Question: What about the MMP-2 expression [9, 15] of the same molecule?
Answer: inhibited

Question: And the MMP-9 expression [9, 15]?
Answer: inhibited

Question: And the “constitutive HIF-1α protein levels” value (HIF-1α [10]; human neuroblastoma cells, 24 hours (FIG. 14B))?
Answer: decreased

Question: What about the “DFX-induced HIF-1α protein levels” value (HIF-1α [10]; pre-incubated with 0.15 mM Desferal 6 hours, then treated 24 hours (FIG. 14C)) of the same molecule?
Answer: decreased

Question: And the “expression of HIF-2α protein” value (HIF-2α)?
Answer: inhibited

Question: And the “downregulation of HIF-1α (luminescence normalized for tumor mass, change from baseline)” value (HIF-1α [4]; [13])?
Answer: 93%

Question: What about the “downregulation of HIF-1α (luminescence normalized for tumor mass, change from baseline)” value (HIF-1α [4]; single dose (qd×1, compound 9 30 mg/kg), 48 hours) of the same molecule?
Answer: 37%

Question: What about the “downregulation of HIF-1α (luminescence normalized for tumor mass, change from baseline)” value (HIF-1α [4]; single dose (qd×1, compound 9 30 mg/kg), 120 hours) of the same molecule?
Answer: 83%

Question: And the “luminescence (HIF-1-dependent luciferase)” value (HIF-1α [4])?
Answer: diminished luminescence

Question: With “^40k4arm-PEG-Met-(20)-(7-ethyl-10-hydroxycamptothecin) [Compound 18]” as the molecule, how does the “Doubling Time in Plasma, Mouse” value [5] read?
Answer: 41.9 min

Question: What about the “Solubility in Saline” value [1] of the same molecule?
Answer: 142 mg/mL

Question: What about the “Doubling Time in Plasma, Rat” value [6] of the same molecule?
Answer: 1920 min

Question: What about the “Doubling Time in Plasma, Human” value [7] of the same molecule?
Answer: 22.2 min

Question: And the “t1/2 in Human Plasma” value [7]?
Answer: 0.447 h
